This is an account of results in US11726082B2, “Screening method of drug candidates for treating disease using interaction between calcium and phosphatidylinositol phosphate” (Gachon University of Industry—Academic Cooperation …, priority 2017, dated 2023).

For experiment [1], the system named is Akt protein. Briefly: Western blotting of Akt protein phosphorylation in insulin-treated HepG2 cells. In kind it is cell-based, human. The conditions noted are these: PA 24 hours, 100 nM insulin 15 minutes, compared with insulin alone. The protocol:
First, male C57BL/6 mice at 8 weeks were divided into the fasted group wherein the mice were fasted for 16 hours and the refed group wherein the mice were fasted for 16 hours and then fed for 4 hours. Each group was sub-divided into the high fat diet group (HFD) and the normal diet group (chow). The liver cells were extracted from the raised mice by the same manner and under the same conditions as described in Example 1. The extracted liver cells were lysed in a lysis buffer containing phosphatase (Sigma-Aldrich, USA) and protease inhibitor (Sigma-Aldrich, USA). Proteins extracted from 2 to 3 mg of the liver tissue were homogenized by using a tissue homogenizer (TissuLyser, Qiagen, USA) for 1.5 minutes at a frequency of 1/30 sec. The homogenized lysate was centrifuged at 12,000 rpm for 15 minutes and the supernatant was obtained. The amount of the extracted protein was quantified by using a protein assay kit (Bio-Rad Laboratories, USA), and at this time BSA was used as a standard sample. 3 mg of the protein was mixed with 6× loading buffer, followed by electrophoresis using 10% SDS-PAGE gel. The electrophoresed protein was transferred onto a polyvinylidene fluoride (PVDF) membrane by using a transfer buffer at 4° C. with 120 V for 1.5 hours. The PVDF membrane on which the protein was transferred was pretreated with a blocking buffer prepared by mixing 5% skim milk with TBS buffer (TBS-T, pH 7.6) supplemented with Tween 20 for 30 minutes, and the membrane was washed with TBS-T. The washed membrane was added with the antibody against Akt (Cell Signaling Technology, USA), Akt(T308) (Cell Signaling Technology, USA), Akt(S473) (Cell Signaling Technology, USA), FOXO3A (Cell Signaling Technology, USA), FOXO3A(S253) (Cell Signaling Technology, USA), GSK-3β (Cell Signaling Technology, USA) or GSK-3β(S9) (Cell Signaling Technology, USA) protein as a primary antibody, followed by reaction at 4° C. for 12 hours. At this time, the antibody against actin (Santa Cruz Biotechnology, USA) protein was used for the control group. Upon completion of the reaction, the secondary antibody corresponding to the primary antibody was added thereto, followed by reaction at room temperature for 30 minutes. The PVDF membrane was washed with TBS-T buffer three times. The washed PVDF membrane was added with ECL solution (Thermo Scientific, USA), followed by image observation.
To investigate the changes in insulin sensitivity when insulin was added to the fatty liver cell model constructed in vitro, the phosphorylations of those proteins that were involved in insulin signal transduction were examined. PA was added to the human HepG2 cells prepared in Example 3, followed by reaction for 24 hours. […]
(In general: Immunoblotting shows a protein as a band on a membrane.)

For experiment [2], the system named is human HepG2 cells. In words: Intracellular calcium concentration with Fluo-3 AM in insulin resistance induced cells. The class given is cell-based. The conditions noted are these: PA 0, 100, 300 or 500 μM, 24 hours. Here is the method:
First, male C57BL/6 mice at 8 weeks (Orient Bio, Korea) were raised in an animal facility of Lee Gil Ya Cancer and Diabetes Institute (Gachon University, Korea). Particularly, the mice were raised in a sterile chamber at the temperature of 23±1° C. with 12 hr/12 hr light/dark cycle, and free dietary environment. At this time, the mice were divided into the fasted group wherein the mice were fasted for 16 hours and the refed group wherein the mice were fasted for 16 hours and then fed for 4 hours. Each group was sub-divided into the high fat diet group (HFD) and the normal diet group (chow). The high fat diet group (HFD) mice were fed with diet containing 60% fat, while the normal diet group (chow) mice were fed with diet containing 10% fat. 8 weeks later, the mice were anesthetized and the liver was perfused by using buffer 1 (142 mM NaCl, 6.7 mM KCl, 10 mM HEPES and 2.5 mM EGTA, pH 7.4). Buffer 1 above was replaced with buffer 2 (0.5 mg/Mg […], 66.7 mM NaCl, 6.7 mM KCl, 10 mM HEPES and 4.8 mM CaCl, pH 7.6), and then the perfused liver was extracted. The extracted liver was washed and degraded by using Percoll cushion gradient. The degraded cells were suspended and cultured in Hepatozyme-SFM (Gibco-BRL USA) culture medium supplemented with 10% FBS and 1% antibiotics and antifungal agent. […] The mounted cells were analyzed using a fluorescence microscope (Zeiss Axioplan 2). […]
A general note: A change in cytosolic calcium serves as a functional read-out for many receptors and channels.

For experiment [3], the system named is human HepG2 cells. Briefly: Intracellular calcium dynamics with Fura-2 AM in insulin resistance induced cells. The class given is cell-based. The conditions noted are these: PA. Here is the method: First, human HepG2 cells were cultured in DMEM (Dulbecco's Modified Eagle Medium) supplemented with 10% fetal bovine serum (FBS), 25 mM glucose, 2 mM L-glutamine, 100 U/Ml of penicillin and 100 μg/Ml of streptomycin. At this time, the culture was performed in a 37° C., 5% CO2 incubator. The cultured cells were distributed in a culture plate at the density of 5.0×10^5 cells/well, followed by further culture for overnight. Palmitic acid (PA) was added to the plate at the concentration of 0, 100, 300 or 500 μM, followed by reaction for 24 hours. Then, the concentration of calcium was investigated by using Fluo-3 AM according to the same conditions and procedures as described in Example 1, and the results are shown in FIG. 2A and FIG. 2B.
Intracellular calcium dynamics was confirmed in the fatty liver cell model constructed in vitro by inducing insulin resistance. At this time, the experiment was performed by the same manner under the same conditions as described in Example 3 except that Fura-2 AM was used instead of Fluo-3 AM.

Experiment [4] has as its system Akt protein. In words: Western blot of Akt activity with C2-Akt fusion protein and PI3K co-treated with PTEN or SHIP2. The class given is cell-based. As to conditions: cells with C2-Akt fusion protein and PI3K vectors co-treated with PTEN or SHIP2. Here is the method:
Particularly, the experiment was performed by the same manner under the same conditions as described in Example 2 except that the vector expressing the C2-Akt fusion protein and the vector expressing PI3K protein were co-treated with PTEN or SHIP2 and the antibody against Akt (Cell Signaling Technology, USA), Akt(T308) (Cell Signaling Technology, USA), Akt(S473) (Cell Signaling Technology, USA), PI3K (Cell Signaling Technology, USA), PTEN (Cell Signaling Technology, USA) or SHIP2 (Upstate Biotechnology, USA) protein was used as the primary antibody.

On to `CCCCCCCCCCCCCCCC(=O)O` [PA, Palmitic acid], for which the Akt protein phosphorylation entry with Akt protein [1] was “significantly inhibited”. The “concentration of calcium in the cytoplasm” value with human HepG2 cells [2] was “increased”. Also, the intracellular calcium concentration result in the experiment on human HepG2 cells [3] is reported as “significantly increased”.

B1: SHIP2: co-treated with the C2-Akt and PI3K vectors (protein, UniProt O15357 1-1258, looked up)
Phosphatidylinositol …: MASACGAPGPGGALGSQAPSWYHRDLSRAAAEELLARAGRDGSFLVRDSESVAGAFALCVLYQKHVHTYRILPDGEDFLAVQTSQGVPVRRFQTLGELIGLYAQPNQGLVCALLLPVEGEREPDPPDDRDASDGEDEKPPLPPRSGSTSISAPTGPSSPLPAPETPTAPAAESAPNGLSTVSHDYLKGSYGLDLEAVRGGASHLPHLTRTLATSCRRLHSEVDKVLSGLEILSKVFDQQSSPMVTRLLQQQNLPQTGEQELESLVLKLSVLKDFLSGIQKKALKALQDMSSTAPPAPQPSTRKAKTIPVQAFEVKLDVTLGDLTKIGKSQKFTLSVDVEGGRLVLLRRQRDSQEDWTTFTHDRIRQLIKSQRVQNKLGVVFEKEKDRTQRKDFIFVSARKREAFCQLLQLMKNKHSKQDEPDMISVFIGTWNMGSVPPPKNVTSWFTSKGLGKTLDEVTVTIPHDIYVFGTQENSVGDREWLDLLRGGLKELTDLDYRPIAMQSLWNIKVAVLVKPEHENRISHVSTSSVKTGIANTLGNKGAVGVSFMFNGTSFGFVNCHLTSGNEKTARRNQNYLDILRLLSLGDRQLNAFDISLRFTHLFWFGDLNYRLDMDIQEILNYISRKEFEPLLRVDQLNLEREKHKVFLRFSEEEISFPPTYRYERGSRDTYAWHKQKPTGVRTNVPSWCDRILWKSYPETHIICNSYGCTDDIVTSDHSPVFGTFEVGVTSQFISKKGLSKTSDQAYIEFESIEAIVKTASRTKFFIEFYSTCLEEYKKSFENDAQSSDNINFLKVQWSSRQLPTLKPILADIEYLQDQHLLLTVKSMDGYESYGECVVALKSMIGSTAQQFLTFLSHRGEETGNIRGSMKVRVPTERLGTRERLYEWISIDKDEAGAKSKAPSVSRGSQEPRSGSRKPAFTEASCPLSRLFEEPEKPPPTGRPPAPPRAAPREEPLTPRLKPEGAPEPEGVAAPPPKNSFNNPAYYVLEGVPHQLLPPEPPSPARAPVPSATKNKVAITVPAPQLGHHRHPRVGEGSSSDEESGGTLPPPDFPPPPLPDSAIFLPPSLDPLPGPVVRGRGGAEARGPPPPKAHPRPPLPPGPSPASTFLGEVASGDDRSCSVLQMAKTLSEVDYAPAGPARSALLPGPLELQPPRGLPSDYGRPLSFPPPRIRESIQEDLAEEAPCLQGGRASGLGEAGMSAWLRAIGLERYEEGLVHNGWDDLEFLSDITEEDLEEAGVQDPAHKRLLLDTLQLSK
B1: the Akt protein activity result in the experiment with Akt protein [4] is “reduced”.
